≈ marks a conversion by molar mass, not a printed value. Read-outs that look alike come from different tables or passages of the source.
Legend:
A. dolens = experiment: MIC by broth microdilution against A. dolens; assay type: cell-based, Achromobacter dolens; conditions: A. dolens isolates
Experimental: (§1) MIC values were determined using a modification of the standard broth microdilution reference method defined by the Clinical and Laboratory Standards Institute (CLSI), CLSL. 2015. Methods for Dilution Antimicrobial Susceptibility Tests for Bacteria That Grow Aerobically; Approved Standard-10th Edition. Clinical and Laboratory Standards Institute, Wayne, PA. The modification was based on the replacement of Mueller Hinton Broth with either CAA media (with and without NaCl) or CAA supplemented with 2.5% human serum. MIC is the minimum concentration of peptide sufficient to suppress at least 80% of the bacterial growth compared to control.
(§2) Based on these nine most prevalent strains, direct lytic agents, including GN370, AM1, AM2, and AM3, were evaluated against various isolates from each of the 9 strains. MICs and MBECs (Example 3) were determined, and a sputum inhibition test was conducted, as described below in Example 5.
(§3) The MICs for were determined as described below using the broth microdilution method for meropenem, GN370, AM1, AM2, and AM3. The results are shown below in Tables 8-12.

B. multivorans = experiment: MIC by broth microdilution against B. multivorans; assay type: cell-based, Burkholderia multivorans; conditions: B. multivorans isolates
Experimental: as §1, §2, §3

B. cenocepacia = experiment: MIC by broth microdilution against B. cenocepacia; assay type: cell-based, Burkholderia cenocepacia; design: MIC Range: unit not given beside the values; conditions: B. cenocepacia isolates
Experimental: as §1, §2, §3

P. apista = experiment: MIC by broth microdilution against P. apista; assay type: cell-based, Pandoraea apista; conditions: P. apista isolates
Experimental: as §1, §2, §3

Q: Which results are given for `C[C@@H](O)[C@H]1C(=O)N2C(C(=O)O)=C(S[C@@H]3CN[C@H](C(=O)N(C)C)C3)[C@H](C)[C@H]12` [meropenem, reference compound]?
A: MIC50 (A. dolens): 2 µg/mL (≈ 5.22 µM); MIC90 (A. dolens): > 32 µg/mL; MIC50 (B. multivorans): 8 µg/mL (≈ 20.9 µM); MIC90 (B. multivorans): 32 µg/mL (≈ 83.4 µM); MIC50 (S. maltophilia; S. maltophilia isolates): > 32 µg/mL; MIC90 (S. maltophilia; S. maltophilia isolates): > 32 µg/mL; MIC (S. maltophilia; S. maltophilia test organism of the sputum time-kill assay): Meropenem (MIC = 32); MIC50 (B. cenocepacia): 4 µg/mL (≈ 10.4 µM); MIC90 (B. cenocepacia): 8 µg/mL (≈ 20.9 µM); MIC Range (B. cenocepacia): 2-32; MIC50 (P. apista): > 32 µg/mL; MIC90 (P. apista): > 32 µg/mL; MIC Range (P. apista): > 32 µg/mL; MIC50 (P. aeruginosa; P. aeruginosa isolates): 4 µg/mL (≈ 10.4 µM); MIC90 (P. aeruginosa; P. aeruginosa isolates): 32 µg/mL (≈ 83.4 µM); MIC (P. aeruginosa; P. aeruginosa test organism of the sputum time-kill assay): (MIC = 0.125); MIC (P. aeruginosa; […], before serial passage): 0.5 µg/mL (≈ 1.3 µM)

Source: patent US20240181022A1, “AMURINS LYSINS, AND LYSIN-ANTIMICROBIAL PEPTIDE (AMP) CONSTRUCTS ACTIVE AGAINST GRAM-NEGATIVE BACTERIA” (priority 2021, published 2024)
